Test results as given in patent US6638542B2, “Reducing appetite in mammals by administering procyanidin and hydroxycitric acid” (Nutricia N.V., priority 2001, dated 2003).

Experiment: Appetite reducing effects of coadministered procyanidin and hydroxycitric acid: voluntary food intake, placebo-controlled cross-over study
Format: in vivo, male Wistar rats
Conditions: 155 mg hydroxycitric acid per kg rat alone, single intragastric bolus, vs placebo, paired student t, FIG. 2
Procedure: The appetite suppressive effects of a combination of procyanidin (pine bark extract containing 65 wt. % procyanidin) and hydroxycitric acid (Regulator™ ex HOB Ireland, Dublin, Ireland) was tested in male Wistar rats. In a placebo-controlled cross-over study, either 13 mg procyanidin per kg rat (A), 155 mg hydroxycitric acid per kg rat (B) or 13 mg procyanidin per kg rat and 155 mg hydroxycitric acid per kg rat (C) were administered as a single bolus intragastrically at 30 min before onset of the active (dark) period.
Subsequently, voluntary food intake was recorded continuously for 48 hours. Following this period, the experiment was repeated as part of the cross-over design (that is, rats which first received the procyanidins now received the placebo and vice versa).
Results are shown as absolute cumulative food intake after 1,2 and 4 hours (see FIG. 2). Statistical analysis (paired student t) was made of the data.

O=C(O)CC(O)(C(=O)O)C(O)C(=O)O (centres unmarked) [hydroxycitric acid]
absolute cumulative food intake after 1, 2 and 4 hours: did not result in a significant decrease | absolute cumulative food intake after 1, 2 and 4 hours (listed as HCA): did not show any significant appetite reducing effect
